Data published in ChEMBL document CHEMBL3885861, “Open TG-GATES”.

Species on record: Rattus norvegicus
Assay: Open TG-GATES - Regimen: Single
Format: toxicity, organism-based, Sprague-Dawley
Set-up: regimen Single, gender Male, age 6 weeks
Conditions: in vivo, po, 100 mg/kg, route gavage, dose level Low; for APTT / Bas / Eos / Fbg / Hb / Ht / Lym / MCH / MCHC / MCV / Mono / Neu / PT / Plat / RBC / Ret / WBC: tissue Blood; for KIDNEY_L / KIDNEY_R / KIDNEY_TOTAL: tissue Kidney; for LIVER: tissue Liver; for A/G / ALP / ALT / AST / BUN / CRE / Ca / Cl / DBIL / GLC / IP / K / LDH / Na / PL / RALB / TBIL / TC / TG / TP / gamma-GTP: tissue Plasma

## CC(S)C(=O)NCC(=O)O (configuration not stated) [TIOPRONIN]
3 h
  TERMINAL_BW: 208 g
  APTT: 22.4 s
  Bas: 0%
  Eos: 0.6%
  Fbg: 295.6 mg/dL
  Hb: 13 g/dL
  Ht: 39.9%
  Lym: 79.2%
  MCH: 20 pg
  MCHC: 32.6%
  MCV: 61.6 fL
  Mono: 2.4%
  Neu: 16.8%
  PT: 16.5 s
  Plat: 113.3 x10_4/uL
  RBC: 649.2 x10_4/ul
  Ret: 7.6%
  WBC: 73.6 x10_2/uL
  KIDNEY_L: 0.9 g
  KIDNEY_R: 0.9 g
  KIDNEY_TOTAL: 1.8 g
  LIVER: 9 g
  A/G: 1.2
  ALP: 1568.4 IU/L
  ALT: 48.2 IU/L
  AST: 75.8 IU/L
  BUN: 10.2 mg/dL
  CRE: 0.1 mg/dL
  Ca: 10.7 mg/dL
  Cl: 106.8 meq/L
  DBIL: 0 mg/dL
  GLC: 185.6 mg/dL
  IP: 8.6 mg/dL
  K: 4.1 meq/L
  LDH: 172.8 IU/L
  Na: 142.8 meq/L
  PL: 117.6 mg/dL
  RALB: 2.9 g/dL
  TBIL: 0.02 mg/dL
  TC: 68.6 mg/dL
  TG: 49.6 mg/dL
  TP: 5.4 g/dL
  gamma-GTP: 1.8 IU/L
6 h
  TERMINAL_BW: 205.7 g
  APTT: 22.4 s
  Bas: 0%
  Eos: 1%
  Fbg: 301.8 mg/dL
  Hb: 12.9 g/dL
  Ht: 39.5%
  Lym: 75.8%
  MCH: 20.1 pg
  MCHC: 32.6%
  MCV: 61.6 fL
  Mono: 2.6%
  Neu: 20.2%
  PT: 16 s
  Plat: 118.6 x10_4/uL
  RBC: 641.6 x10_4/ul
  Ret: 7.7%
  WBC: 93.1 x10_2/uL
  KIDNEY_L: 0.9 g
  KIDNEY_R: 0.9 g
  KIDNEY_TOTAL: 1.9 g
  LIVER: 8.8 g
  A/G: 1.2
  ALP: 1456.8 IU/L
  ALT: 39.6 IU/L
  AST: 70.8 IU/L
  BUN: 8.4 mg/dL
  CRE: 0.1 mg/dL
  Ca: 10.6 mg/dL
  Cl: 105.8 meq/L
  DBIL: 0 mg/dL
  GLC: 185.2 mg/dL
  IP: 9.8 mg/dL
  K: 4.3 meq/L
  LDH: 154.6 IU/L
  Na: 144 meq/L
  PL: 125.6 mg/dL
  RALB: 2.9 g/dL
  TBIL: 0.018 mg/dL
  TC: 76.4 mg/dL
  TG: 50.8 mg/dL
  TP: 5.4 g/dL
  gamma-GTP: 2 IU/L
9 h
  TERMINAL_BW: 205.8 g
  APTT: 22.6 s
  Bas: 0%
  Eos: 0.2%
  Fbg: 291.8 mg/dL
  Hb: 12.5 g/dL
  Ht: 39.1%
  Lym: 80.6%
  MCH: 20.4 pg
  MCHC: 32%
  MCV: 63.7 fL
  Mono: 1.8%
  Neu: 16.2%
  PT: 16.4 s
  Plat: 114 x10_4/uL
  RBC: 614.2 x10_4/ul
  Ret: 8.3%
  WBC: 72.6 x10_2/uL
  KIDNEY_L: 0.9 g
  KIDNEY_R: 0.9 g
  KIDNEY_TOTAL: 1.8 g
  LIVER: 8.5 g
  A/G: 1.1
  ALP: 1275.6 IU/L
  ALT: 39.2 IU/L
  AST: 70.2 IU/L
  BUN: 12.8 mg/dL
  CRE: 0.1 mg/dL
  Ca: 10.6 mg/dL
  Cl: 106.4 meq/L
  DBIL: 0.002 mg/dL
  GLC: 190.2 mg/dL
  IP: 9.5 mg/dL
  K: 4.2 meq/L
  LDH: 142.8 IU/L
  Na: 143.8 meq/L
  PL: 119.6 mg/dL
  RALB: 2.8 g/dL
  TBIL: 0.01 mg/dL
  TC: 68.8 mg/dL
  TG: 48.4 mg/dL
  TP: 5.4 g/dL
  gamma-GTP: 1.2 IU/L
24 h
  TERMINAL_BW: 222 g
  APTT: 20.5 s
  Bas: 0%
  Eos: 0.8%
  Fbg: 302.2 mg/dL
  Hb: 12.9 g/dL
  Ht: 38.6%
  Lym: 81.8%
  MCH: 20.5 pg
  MCHC: 33.3%
  MCV: 61.6 fL
  Mono: 2.6%
  Neu: 13.8%
  PT: 16.3 s
  Plat: 111.9 x10_4/uL
  RBC: 627.6 x10_4/ul
  Ret: 7.4%
  WBC: 75.5 x10_2/uL
  KIDNEY_L: 1 g
  KIDNEY_R: 1 g
  KIDNEY_TOTAL: 1.9 g
  LIVER: 9.6 g
  A/G: 1.2
  ALP: 1761 IU/L
  ALT: 45.6 IU/L
  AST: 76.8 IU/L
  BUN: 15.2 mg/dL
  CRE: 0.1 mg/dL
  Ca: 10.8 mg/dL
  Cl: 106.2 meq/L
  DBIL: 0 mg/dL
  GLC: 184.8 mg/dL
  IP: 7.4 mg/dL
  K: 4.4 meq/L
  LDH: 166 IU/L
  Na: 144.4 meq/L
  PL: 144 mg/dL
  RALB: 3 g/dL
  TBIL: 0.01 mg/dL
  TC: 82.4 mg/dL
  TG: 93 mg/dL
  TP: 5.6 g/dL
  gamma-GTP: 1.2 IU/L
